Marks after values point to notes of the source that are not given here.
Tests used:
Type in all cases: in vivo
Balb/c mice = experiment: open-field test, Balb/c mice (passive type of emotional-stress reaction); parameters: key to Total activity: sum of all locomotor activity counts (crossings + rearings) in 3 min; conditions: for Central activity (crossings) / Number of defecations / Peripheral activity (crossings) / Total activity / Vertical activity (rearings): M ± mx; for effect on the behavior (locomotor activity) of Balb/c mice in open-field test, in words: i.p., screening
Excerpt: (§1) The main point of this approach consists in comparative analysis of the behavioural effects of tested compounds in two inbred strains of mice Balb/c and C57B1/6 with different hereditary types of emotional-stress reactions (ESR). The anxiolytic effect was estimated as the activation of the locomotor activity of animals with “passive” type of ESR (Balb/c mice). The main index describing the sedative properties of tested drugs was the inhibition of the locomotor activity of mice with “active” type of ESR (C57B1/6 strain). The anxioselectivity was evaluated according to coincidence of doses range which activated or inhibited the behavior of mice of different strains. Earlier this approach has been successfully used for estimation of anxioselective activity of such known drugs as phenazepam [Seredenin S. B. et al., Bull.Exp.Biol.Med., 1979, v.88, N7, p.38; Seredenin S. B. et al., Ann.Inst.Super.Sanita, 1990, v.26, N1, p.81-88], mexidol [Seredenin S. B. et al., Khimiko-Farmatsevt.Zhurnal, 1987, N2, p.134; Vironina T. A., Seredenin S. B., Ann.Inst.Super.Sanita, 1988, v.24, N3, p.461-466] and gidazepam [Seredenin S. B. et al., in: “Gidazepam” Kiev, Naukova Dumka, 1992, p.92; Seredenin S. B., Blednov Yu. A., Phys.Chem.Biol.Med., 1993, v.1, N1, p.53-60].
(§2) Male C57B1/6 and Balb/c mice (“Stolbovaya” animal farm), weighing 20-22 g were used. The animals were housed in a separate animal room in groups of ten and maintained on 12 h light-dark cycle (light from 8.00 till 20.00) with free access to standard food and water during two weeks before experiment. Testing was performed between 9.00 and 13.00. Every used compound was administered intraperitoneally in water solutions 30 min before testing (0,1 ml solution per 10 g of weight). The “open-field” apparatus consisted of cylinder closed from one end, illuminated by four 75 W lamps fixed to the walls 100 cm above the floor. The “open-field” apparatus was 100 cm in diameter and white-painted; the floor was marked with 3 black circles and some radial lines divided the floor into 16 peripheral and 8 central segments. 30 min after injection each animal was placed in the same peripheral square on the floor for 3 min of testing after 1 min exposure in the dark chamber. The following behavior variables were recorded: 1) the number of crossings in the peripheral area (peripheral activity); 2) the number of crossings in the central segments (central activity); 3) the number of rearings (vertical activity); 4) the emotionality was measured as the number of defecations during the test. The sum of all types of locomotor activity was marked as total activity. The t-Student test was used for statistical analysis.

C57B1/6 mice = experiment: open-field test, C57B1/6 mice (active type of emotional-stress reaction); parameters: key to Total activity: sum of all locomotor activity counts (crossings + rearings) in 3 min; conditions: for Central activity (crossings) / Peripheral activity (crossings) / Total activity / Vertical activity (rearings): M ± mx
Excerpt: as §1, §2

cats = experiment: hemodynamics and activity of intact heart in cats under anesthesia; conditions: for Cardiac volume, change from basal level / Heart rate, change from basal level / Mean blood flow accelaration (aortic), change from basal level / Mean blood pressure, change from basal level / Stroke volume, change from basal level: cats, 1.0 mg/kg i.v.
Procedure: The effects of compounds on the hemodynamics and activity of intact heart were studied in cats under anesthesia. The experiments were carried out under conditions of open chest. The phase curve of aortic blood flow was the main index of cardiac activity. The compounds were administered i.v. in physiological solution. The t-Student' test was used to estimate the statistical significance.

[1] = test system: ischemized myocardium of cats; experiment: ST-segment elevation during 5 min occlusions of coronary artery (acute coronary deficiency); conditions: for change in mean elevation of ST-segment vs control occlusion: cats, 1.0 mg/kg i.v.
Procedure: These experiments were conducted in cats weighing 2,5-4,0 kg under anasthesia by i.v. injection of nembutal (40 mg/kg) in open chest conditions. Epicardium electrogram in 3-4 leads was registered in “Mingograph-81”. The value of mean elevation of ST-segment during 5 min occlusions of anterior left descending coronary artery with 15 min reperfusions between them was the main index of intensity of reversible ischemized damage of myocardium.
The statistical calculation was carried out with non-parametric Wilcocson method for associated variants.

## C=CCSc1nc2cc(C)c(C)cc2[nH]1 [III, 2-Allylthio-5,6-dimethylbenzimidazole]
Balb/c mice; 0.1 mg/kg i.p.
  Central activity (crossings): 3.3 ± 2.0
  Number of defecations: 2.5 ± 0.9
  Peripheral activity (crossings): 28.1 ± 5.8
  Total activity: 32.1 ± 7.9
  Vertical activity (rearings): 0.6 ± 0.4
Balb/c mice; 1.0 mg/kg i.p.
  Central activity (crossings): 0.6 ± 0.3
  Number of defecations: 2.5 ± 0.7
  Peripheral activity (crossings): 35.8 ± 6.1
  Total activity: 36.4 ± 6.4
Balb/c mice; 5.0 mg/kg i.p.
  Central activity (crossings): 0.3 ± 0.3
  Number of defecations: 3.0 ± 0.7
  Peripheral activity (crossings): 46.8 ± 9.9
  Total activity: 47.5 ± 10.3
  Vertical activity (rearings): 0.4 ± 0.3
Balb/c mice; 10.0 mg/kg i.p.
  Central activity (crossings): 3.3 ± 2.1
  Number of defecations: 2.0 ± 0.7
  Peripheral activity (crossings): 56.1 ± 12.2
  Total activity: 59.4 ± 13.8
Balb/c mice; 20.0 mg/kg i.p.
  Number of defecations: 1.5 ± 0.7
  Peripheral activity (crossings): 24.0 ± 11.5
  Total activity: 24.1 ± 11.5
Balb/c mice
  effect on the behavior (locomotor activity) of Balb/c mice in open-field test, in words: able to activate the behavior of Balb/c mice
C57B1/6 mice; 0.1 mg/kg i.p.
  Central activity (crossings): 42.1 ± 4.8
  Peripheral activity (crossings): 109.4 ± 8.3
  Total activity: 170.9 ± 10.0
  Vertical activity (rearings): 19.4 ± 3.4
C57B1/6 mice; 0.5 mg/kg i.p.
  Central activity (crossings): 42.1 ± 7.5
  Peripheral activity (crossings): 118.4 ± 9.0
  Total activity: 184.6 ± 8.6
  Vertical activity (rearings): 22.6 ± 2.0
C57B1/6 mice; 1.0 mg/kg i.p.
  Central activity (crossings): 35.9 ± 7.6
  Peripheral activity (crossings): 107.8 ± 7.4
  Total activity: 165.9 ± 13.5
  Vertical activity (rearings): 22.3 ± 3.8
C57B1/6 mice; 5.0 mg/kg i.p.
  Central activity (crossings): 28.8 ± 6.9
  Peripheral activity (crossings): 130.8 ± 16.8
  Total activity: 177.8 ± 20.7
  Vertical activity (rearings): 18.6 ± 2.7
C57B1/6 mice; 10.0 mg/kg i.p.
  Central activity (crossings): 23.6 ± 5.3
  Peripheral activity (crossings): 118.0 ± 7.9
  Total activity: 154.4 ± 13.3
  Vertical activity (rearings): 12.9 ± 1.8
C57B1/6 mice; 50.0 mg/kg i.p.
  Central activity (crossings): 24.0 ± 2.7
  Peripheral activity (crossings): 105.2 ± 11.9
  Total activity: 141.3 ± 11.7
  Vertical activity (rearings): 12.1 ± 1.3
C57B1/6 mice; i.p., doses that activate Balb/c mice
  effect on locomotor activity of C57B1/6 mice in open-field test, in words: without any changes in locomotor activity

## CCOc1ccc2nc(SCCN(C)C)[nH]c2c1 [VIII]
Balb/c mice
  effect on the behavior (locomotor activity) of Balb/c mice in open-field test, in words: neither activatory nor inhibitory effects
cats; cats i.v., same doses as bradycardia
  effect on contractile function of heart, in words: slightly enhanced the contractility of myocardium
cats; cats i.v., VIII 1,0, IX 0,5 and 1,0, XX 1,0 and 2,0 mg/kg
  duration of bradycardia after administration: 30 min
cats; cats i.v., VIII 1,0, IX 0,5 and 1,0, XX 1,0 and 2,0 mg/kg, XXIII 1.0, verapamil 0.5 mg/kg
  effect on heart rate, in words: expressed bradycardia
cats; after 2 min
  Cardiac volume, change from basal level: +7.0 ± 2.9%
  Heart rate, change from basal level: −10.9 ± 2.3 %
  Mean blood flow accelaration (aortic), change from basal level: +3.3 ± 2.7%
  Mean blood pressure, change from basal level: −1.8 ± 3.8%
  Stroke volume, change from basal level: +20.6 ± 6.5 %
cats; after 5 min
  Cardiac volume, change from basal level: +6.0 ± 12.8%
  Heart rate, change from basal level: −3.2 ± 1.4%
  Mean blood flow accelaration (aortic), change from basal level: −2.0 ± 9.0%
  Mean blood pressure, change from basal level: −2.8 ± 5.7%
  Stroke volume, change from basal level: +5.6 ± 10.8%
cats; after 10 min
  Cardiac volume, change from basal level: −7.5 ± 9.6%
  Heart rate, change from basal level: −4.4 ± 1.9%
  Mean blood flow accelaration (aortic), change from basal level: −5.2 ± 7.8%
  Mean blood pressure, change from basal level: −7.8 ± 5.7%
  Stroke volume, change from basal level: −3.5 ± 8.7%
cats; after 20 min
  Cardiac volume, change from basal level: −7.2 ± 9.2%
  Heart rate, change from basal level: −3.2 ± 1.8%
  Mean blood flow accelaration (aortic), change from basal level: −6.2 ± 7.6%
  Mean blood pressure, change from basal level: −12.0 ± 5.0%
  Stroke volume, change from basal level: −4.5 ± 8.4%
cats; after 30 min
  Cardiac volume, change from basal level: −2.2 ± 3.0%
  Heart rate, change from basal level: −5.4 ± 3.1%
  Mean blood flow accelaration (aortic), change from basal level: +1.2 ± 2.1%
  Mean blood pressure, change from basal level: −6.5 ± 5.7%
  Stroke volume, change from basal level: +3.5 ± 3.5%
cats; after injection
  Cardiac volume, change from basal level: 38.1 ± 11.6 %
  Heart rate, change from basal level: −15.3 ± 1.1 %
  Mean blood flow accelaration (aortic), change from basal level: +31.3 ± 10.8%
  Mean blood pressure, change from basal level: −14.8 ± 12.5%
  Stroke volume, change from basal level: 63.2 ± 14.0 %
[1]; occlusion 20 min after injection, 30 sec of occlusion
  change in mean elevation of ST-segment vs control occlusion: −0.45 mv
[1]; occlusion 20 min after injection, 1 min of occlusion
  change in mean elevation of ST-segment vs control occlusion: −0.30 mv
[1]; occlusion 20 min after injection, 2 min of occlusion
  change in mean elevation of ST-segment vs control occlusion: −0.50 mv
[1]; occlusion 20 min after injection, 4 min of occlusion
  change in mean elevation of ST-segment vs control occlusion: −0.50 mv
[1]; occlusion 20 min after injection, 5 min of occlusion
  change in mean elevation of ST-segment vs control occlusion: −0.25 mv
[1]; occlusion 40 min after injection, 15 sec of reperfusion
  change in mean elevation of ST-segment vs control occlusion: −0.75 mv
[1]; occlusion 40 min after injection, 30 sec of occlusion
  change in mean elevation of ST-segment vs control occlusion: −0.55 mv
[1]; occlusion 40 min after injection, 1 min of occlusion
  change in mean elevation of ST-segment vs control occlusion: −0.35 mv
[1]; occlusion 40 min after injection, 2 min of occlusion
  change in mean elevation of ST-segment vs control occlusion: −0.40 mv
[1]; occlusion 40 min after injection, 4 min of occlusion
  change in mean elevation of ST-segment vs control occlusion: −0.50 mv
[1]; occlusion 40 min after injection, 5 min of occlusion
  change in mean elevation of ST-segment vs control occlusion: −0.85 mv
[1]; occlusion immediately after injection, 15 sec of reperfusion
  change in mean elevation of ST-segment vs control occlusion: −0.40 mv
[1]; occlusion immediately after injection, 30 sec of occlusion
  change in mean elevation of ST-segment vs control occlusion: −1.20* mv
[1]; occlusion immediately after injection, 1 min of occlusion
  change in mean elevation of ST-segment vs control occlusion: −0.90* mv
[1]; occlusion immediately after injection, 2 min of occlusion
  change in mean elevation of ST-segment vs control occlusion: −1.25* mv
[1]; occlusion immediately after injection, 4 min of occlusion
  change in mean elevation of ST-segment vs control occlusion: −0.70 mv
[1]; occlusion immediately after injection, 5 min of occlusion
  change in mean elevation of ST-segment vs control occlusion: −0.80 mv
[1]; cats, 1,0 mg/kg i.v.
  effect on mean elevation of ST-segment during 5 min occlusion, in words: decreased the mean elevation of ST-segment

Reference: patent US6376666B1 (Nauchno-Issledovatelsky Institut Farmakologii Rossiiskoi …, priority 1994, dated 2002)
